Earlier results as cited in patent publication US20130023494A1, “MODULATORS OF THE GPR119 RECEPTOR AND THE TREATMENT OF DISORDERS RELATED THERETO” (ARENA PHARMACEUTICALS, INC., priority 2010, published 2013).

Columns and labels:
[1] = system: GPR119; conditions: combined administration with a DPP-IV inhibitor, compared with either agent alone; cited from earlier work
[2] = system: human patients suffering with type 2 diabetes; conditions: oral administration, human patients with type 2 diabetes; cited from earlier work
[3] = system: humans; conditions: cited from earlier work

CC(C)c1noc(C2CCN(c3ncnc(Nc4ccc(S(C)(=O)=O)cc4F)c3[N+](=O)[O-])CC2)n1 [Compound B111, (2-Fluoro-4-methanesulfonyl-phenyl)-{6-[4-(3-isopropyl-[1,2,4]oxadiazol-5-yl)-piperidin-1-yl]-5-nitro-pyrimidin-4-yl}-amine]
glucose tolerance [1]: improved glucose tolerance to a significantly greater degree than either agent alone | plasma GLP-1 levels [1]: acutely increased plasma GLP-1 levels

N[C@@H](CC(=O)N1CCn2c(nnc2C(F)(F)F)C1)Cc1cc(F)c(F)cc1F [sitagliptin, 3(R)-amino-1-[3-(trifluoromethyl)-5,6,7,8-tetrahydro[1,2,4]triazolo[4,3-a]pyrazin-7-yl]-4-(2,4,5-trifluorophenyl)butan-1-one]
fasting glucose, postprandial glucose excursion and HbA1c levels [2]: reduce fasting glucose and postprandial glucose excursion in association with significantly reduced HbA1c levels

N#C[C@@H]1CCCN1C(=O)CNC12CC3CC(CC(O)(C3)C1)C2 [vildagliptin, 1-[2-(3-hydroxyadamant-1-ylamino)acetyl]pyrrolidine-2(S)-carbonitrile]
fasting glucose, postprandial glucose excursion and HbA1c levels [2]: reduce fasting glucose and postprandial glucose excursion in association with significantly reduced HbA1c levels

PYY3-36: generated from PYY1-36 by cleavage of the N-terminal Tyr and Pro residues by dipeptidyl peptidase IV; Y2R selective agonist
reduction of food intake ([3]; human studies, infusion, over 24 hours): 33% | time of decline to basal levels ([3]; human, after infusion): ≤ 30 min | time to peak serum levels of PYY3-36 ([3]; human, infusion to reach normal postprandial circulatory concentrations): ≤ 15 min
